Reference: a melting point compilation (Tetko et al.; mined from patent text by program, amines drawn as free bases though some values may be those of a salt)

Point of comparison: `CC(=O)OC1CSC(Oc2cnccc2Br)C(OC(C)=O)C1OC(C)=O` (stereo unspecified), melting point 153 °C. Against it:
- COC(=S)c1ccncc1Cc1ccc(OC)cc1 — lower, 99 to 100 °C
- CCSc1ncn(-c2ccc(O)cc2)n1 — higher, 170 °C
- OCC1OC(n2c(Cl)nc3cc(Cl)ccc32)C(O)C1O (stereo unspecified) — lower, 102 to 150 °C
- O=C1CCCCN1S(=O)(=O)c1ccc(N2CCCCC2)cc1 — lower, 140 to 145 °C
- COP(=O)(CC(=C(c1ccc(F)cc1)c1ccc(F)cc1)n1cnnn1)OC — lower, 133 to 134 °C
- Clc1cnc(SCI)nc1 — lower, 67 °C
- N#Cc1c(N)oc2c1c(Cc1ccccc1)c(O)c1ccccc12 — higher, 224 to 225 °C
- Cn1ccnc1C1Cn2cc(C(=O)NCc3ccc(Cl)cc3)c(=O)c3cc(CN4CCOCC4)cc(c32)O1 (stereo unspecified) — higher, > 260 °C
- CN(C)c1cc2c(cc1C(F)(F)F)NC(=O)CC(c1cccc(-c3ccncc3)c1)=N2 — higher, 202 °C
- Nc1ccc([N+](=O)[O-])c(Cl)c1Cl — higher, 170 to 174 °C
- O=C(O)C1CSC(C2CCCCC2)=NN1C(=O)CCS (stereo unspecified) — lower, 95 to 97 °C
- CCOC(=O)C(=O)Nc1nc(C(C)C)cs1 — lower, 54 to 57 °C
- CC(C)c1c(C(=O)Nc2ccccc2)c(-c2ccc(F)cc2)cn1-c1ccccc1 — higher, 192 to 194 °C
- CC(=O)N1c2c(ccn3cc(C)nc23)C(=O)C(OC(=O)C(C)(C)C)C1c1ccccc1 (stereo unspecified) — higher, 168 to 169 °C
- CCCCc1nc2cccnc2n1Cc1ccc2c(Cl)c(C(=O)O)sc2c1 — higher, > 260 °C
- C[C@@H]1N=C(c2ccccc2Cl)c2ccsc2NC1=O — higher, 200 °C
- O=C(O)c1ccc(-c2ccc(C(=O)O)cn2)nc1 — higher, > 400 °C
- O=C(O)c1cccc(Br)c1Nc1ccccc1Br — higher, 181 to 182 °C
- Cc1ccn(-c2ccc(C(=O)N3Cc4cccnc4Oc4ccccc43)c(Cl)c2)n1 — higher, 220 to 222 °C
- CCOC(=O)c1c(N=[N+]=[N-])[nH]c(=O)c(I)c1Oc1cc(C)cc(C)c1 — higher, 216 to 218 °C
- COc1ccc(S(=O)(=O)NCc2ccc(O)cc2)cc1 — higher, 161 to 162 °C
- CCOC(=O)c1c(CC(=O)O)n(-c2ccc(OC(C)C)cc2)c2ccc(Oc3ncccc3C(N)=O)cc12 — higher, 210 to 212 °C
- O=C(NCc1cccnc1)c1ccc2n1Cc1ccccc1N(C(=O)c1ccc(-c3ccccc3CN3CCOCC3)cc1)C2 — higher, 191 to 194 °C
- CCN1C(=O)CCCc2cc(Nc3ncc(Cl)c(Nc4ccccc4S(=O)(=O)N(C)C)n3)c(OC)cc21 — not separable, 147 to 153 °C
- O=C(c1ccn2c1CSC2c1cccnc1)c1c[nH]c2cc(-c3ccc(F)cc3)ccc12 (stereo unspecified) — higher, 248 to 252 °C
- N#Cc1[nH]c2ccc(C(O)(C(F)(F)F)C(F)(F)F)cc2c1-c1ccccc1 — higher, 247 to 249 °C
- COc1ccc2c(c1)c(Cc1cc(=O)n(-c3cccc(Br)c3)[nH]1)c(C)n2C(=O)c1ccc(Cl)cc1 — higher, 164 to 167 °C
- CC1(C)CC(NC(=O)c2cc(Cl)cc(NC=O)c2O)CC(C)(C)C1 — higher, 214 to 215 °C
- COc1ccc(-c2[nH]nc3c2C(=O)c2c(NC(=O)CN4CCC(N(C)C)CC4)cccc2-3)cc1 — higher, > 300 °C
- O=C(O)c1cc(-c2ccncn2)c[nH]c1=O — higher, > 250 °C
- N#Cc1c(NCc2ccccc2)n[nH]c1N — lower, 150 to 152 °C
- CCN(CC)CCOc1ccc(Nc2ncc3c(n2)N(c2cccc(CCN)c2)C(=O)N(c2ccc(Cl)cc2Cl)C3)cc1 — lower, 108 °C
- O=C(CO)Cc1ccc(Cl)cc1 — lower, 53.5 °C
- CCCOc1ccnc2c1c(C(C)=O)cn2S(=O)(=O)c1ccccc1 — lower, 119 to 121 °C
- CC(C#N)c1ccc2oc(-c3ccccc3)nc2c1 (stereo unspecified) — lower, 118 to 120 °C
- C=C(CCC(=O)O)CC(N)C(=O)O (stereo unspecified) — lower, 68 °C
- Cc1nc(N2CCN(Cc3ccc(F)cc3)C2=O)sc1C#N — lower, 136 to 139 °C
- COc1ccn2nc(-c3ccccc3)c(-c3ccc(=O)[nH]n3)c2c1 — higher, 246 to 247 °C
- CC(=O)Nc1c(Cl)cnc(OCCO)c1Cl — lower, 131 to 132 °C
- O=c1[nH]c2ncc(Br)cc2o1 — higher, 229 to 230 °C
- CCOC(=O)CNC(=O)N1CCc2cc(S(=O)(=O)N3CCN(c4cccc(Cl)c4)CC3)ccc21 — lower, 150 °C
- Cc1cn(C)c2c1N(C(=O)C(C)N1CCCC1)c1ccccc1NC2=O (stereo unspecified) — higher, 213 to 215 °C
- Cc1nc(-c2ccc(OCc3cccc(Cl)c3)cc2)no1 — lower, 96 to 98 °C
- CN(C)CCOc1ccc2ccc(NC(=O)c3ccccc3)nc2n1 — lower, 109 °C
- COc1ccc2c(CBr)c(F)ccc2c1C(F)(F)F — lower, 97 to 100 °C
- CCC(CC)n1cc(Cl)nc(N2CCc3cc(OC)cc(Br)c32)c1=O — lower, 130 to 132 °C
- Cc1cc(C=CC#N)cc(Oc2[nH]c(=O)[nH]c(=O)c2C(C)C)c1 — higher, 279 to 280 °C
- Nc1nc2ccc(OS(=O)(=O)c3ccc(F)cc3)cc2[nH]1 — higher, 192 °C
- COC(CN(C)C(=O)Nc1nnc(C(C)Oc2cc(Cl)cc(Cl)c2)s1)OC (stereo unspecified) — lower, 149 to 152 °C
- COc1ccc(C#N)cc1OC1COCC1OC (stereo unspecified) — lower, 98 to 100 °C
- CCOc1ccccc1OCCN(CCCC(OCC)c1ccc(F)cc1)C(C)=O (stereo unspecified) — lower, 58 to 60 °C
- COc1ccc(CN(CCCNc2ncc(Cc3ccc(C)nc3)c(=O)[nH]2)c2ccccn2)cc1 — lower, 90 to 98 °C
- Cc1c(NC(=O)CC(C)(C)C)cc2c(c1C)OC(C)(C)C2c1cccs1 (stereo unspecified) — lower, 137 to 138 °C
- COc1cc2nc3ccc(F)cc3sc-2cc1=O — higher, 252 °C
- COc1cc(C(O)CS(C)(=O)=O)cc(OC)c1N(C)C (stereo unspecified) — lower, 147 to 148 °C
- COCCOc1ccc(/C=C/CO)c(Oc2ncc(C(F)(F)F)cc2Cl)c1 — lower, 119 to 121 °C
- Cn1cc(-c2ccc(C(=O)N3Cc4cccn4Cc4ccccc43)cc2)cn1 — higher, 200 to 201 °C
- COc1ccc(S(=O)(=O)CCNC(=O)N2CCCC2=O)cc1 — lower, 124 to 125 °C
- Cc1nn2c(c1C(N)=O)NCC=C2c1cc(Cl)ccc1Cl — lower, 93 to 96 °C
- N=C(N)NCCc1ccc(OCCCC(c2ccccc2)(c2ccccc2)c2ccccc2)cc1 — higher, 169 to 170 °C
- O=C(c1cccc(N2CC(=O)N(S(=O)(=O)c3ccc(Cl)cc3)C2=O)c1)N1CCOCC1 — higher, 248 to 253 °C
- CSC(C)(C)C=NOC(=O)N(C)SN(C)C — lower, 48 to 50 °C
- O=C(O)c1ccc(C=Cc2cc(=O)c3cc(Br)ccc3o2)cc1 — higher, 359 to 362 °C
- O=C(c1ccc(F)cc1)C1CCN(CCN2c3cccc4cccc(c34)S2(=O)=O)CC1 — lower, 145 °C
- Nc1nonc1-c1nc2ccccc2n1COc1ccccc1 — higher, 171 to 173 °C
- CCN(CC)CCOc1ccc2c3c(cccc13)C(=O)c1c-2oc2ccccc12 — lower, 115 to 118 °C
- Nc1c(Cl)cc(Nc2ncnc3cnc(N[C@H]4CC[C@H](C(=O)N5CCCC5)CC4)nc23)cc1Cl — higher, 228 to 230 °C
- CC(=O)c1ccc2c(c1)[C@@H](N1CCCC1=O)[C@H](O)C(C)(C)O2 (relative stereo) — higher, 218 to 219 °C
- CCOC(=O)c1c(C(F)(F)F)nc(C(F)F)c(C(=O)O)c1N — lower, 142 to 151 °C
- CC(C)(C)OC(=O)CCN1CCC(O)(c2ccc(O)cc2CO)CC1 — lower, 68 to 70 °C
